Like-named read-outs stand apart in the source and are kept apart here.
Key:
[1] = test system: SARS-CoV-2; test: Antiviral potency against SARS-CoV-2 in Vero-E6 cells (protection from virus-induced cytopathic effect / intracellular viral antigen accumulation); type: cell-based
[2] = Determination of cytotoxicity by MTT colorimetric assay; type: cell-based; conditions: African green monkey, uninfected Vero-E6 cells, 50 to 0.78 µM
Method: Determination of cytotoxicity by MTT colorimetric assay: To evaluate the cytotoxicity profile of the selected compounds MTT assays were performed in Vero-E6 cells. Uninfected cells were incubated with a range of compound concentrations (from 50 to 0.78 µM) for forty-eight hours, time at which the MTT substrate [3-(4,5-dimethylthiazol-2-yl)-2,5-diphenyltetrazolium bromide] was added and the formation of formazan precipitates was evaluated two hours later, using a colorimetric readout. Vehicle-treated cells were used as reference (100%).

[3] = test system: SARS-CoV-2; test: Intracellular viral RNA quantitation by RT-qPCR; type: cell-based; conditions: 15µM; for intracellular viral RNA levels (in words): as compared with the uninfected controls; for % RNA relative to DMSO: Vero-E6, MOI 0.001, 48 h, SARS-CoV-2 E gene normalised to 18S, DMSO set as 100%
[4] = test system: hCoV-229E-GFP; type: cell-based, Human coronavirus 229E
[5] = Severe acute respiratory syndrome coronavirus 2, Vero C1008, SARS-CoV-2 strain NL/2020, Vero-E6 cells, mean, read-out: EC50 mean
[6] = Severe acute respiratory syndrome coronavirus 2, Vero C1008, SARS-CoV-2 strain NL/2020, Vero-E6 cells, mean, read-out: EC90 mean

Row | SMILES | EC50 [1, 5] | EC90 [1, 6] | CC50 at 48 h [2] | intracellular viral RNA levels (in words) [3] | % RNA relative to DMSO [3] | % Reduction of hCoV-229E-GFP propagation [4] | EC50 ([1]; Severe acute respiratory syndrome coronavirus 2, Vero C1008, read-out: EC50 mean) | EC90 ([1]; Severe acute respiratory syndrome coronavirus 2, Vero C1008, read-out: EC90 mean)
1 | CC(C)(C)OC(=O)CN1[C@@H](CCCCNC(=O)OC(C)(C)C)C(=O)NC[C@H]1[C@H](Cc1cn(C(=O)OC(C)(C)C)c2ccccc12)NC(=O)OC(C)(C)C [Example 6, (5S,3S)-5-((S)-1-(tert-butoxycarbonyl)amino-2-(1-(tert-butoxycarbonyl)-(indol-3-yl))-ethyl)-4(tert-butoxycarbonyl)methyl-3-(4-(tert-butoxycarbonyl)aminobutyl)-2-oxopiperazine] | 3.17 µM | 9.67 µM | > 50 µM | virtually undetectable levels | 10^-4% | 98% | – | –
2 | CC(C)(C)OC(=O)NCCCC[C@@H]1N[C@H]([C@H](Cc2cn(C(=O)OC(C)(C)C)c3ccccc23)NC(=O)OC(C)(C)C)CNC1=O [Example 2, (5S,3S)-5-((S)-1-(tert-butoxycarbonyl)amino-2-(1-(tert-butoxycarbonyl)(indol-3-yl))-ethyl)-3-(4-(tert-butoxycarbonyl)amino-butyl)-2-oxopiperazine] | 15.3 µM | 46.7 µM | > 50 µM | – | – | – | – | –
3 | CC(C)(C)OC(=O)NCCCC[C@H]1C(=O)NC[C@H]([C@H](Cc2cn(C(=O)OC(C)(C)C)c3ccccc23)NC(=O)OC(C)(C)C)N1Cc1ccccc1 [Example 3, (5R,3S)-4-benzyl-5-((S)-1-(tert-butoxycarbonyl)amino-2-(1-(tert-butoxycarbonyl)(indol-3-yl))-ethyl)-3-(4-(tert-butoxycarbonyl)amino-butyl)-2-oxopiperazine] | 6.33 µM | 14.3 µM | > 50 µM | virtually undetectable levels | 10^-2% | 94% | – | –
4 | CC(C)(C)OC(=O)NCCCC[C@H]1C(=O)NCC([C@H](Cc2cn(C(=O)OC(C)(C)C)c3ccccc23)NC(=O)OC(C)(C)C)N1Cc1ccccc1 (stereo in doubt) [Example 4, (5R,3S)-4-benzyl-5-((S)-1-(tert-butoxycarbonyl)amino-2-(1-(tert-butoxycarbonyl)(indol-3-yl))-ethyl)-3-(4-(tert-butoxycarbonyl)amino-butyl)-2-oxopiperazine] | – | – | > 50 µM | – | – | 97% | 1.6 µM | 14.7 µM
5 | CC(C)(C)OC(=O)CN1[C@@H]([C@H](Cc2cn(C(=O)OC(C)(C)C)c3ccccc23)NC(=O)OC(C)(C)C)CNC(=O)[C@@H]1CCCCNC(=O)OC(C)(C)C [Example 5, (5R,3S)-5-((S)-1-(tert-butoxycarbonyl)amino-2-(1-(tert-butoxycarbonyl)-(indol-3-yl))-ethyl)-4(tert-butoxycarbonyl)methyl-3-(4-(tert-butoxycarbonyl)aminobutyl)-2-oxopiperazine] | 1.93 µM | 7.33 µM | > 50 µM | – | – | 94% | – | –
